The numbers were not newly measured in patent publication US20260256788A1, “COMPOSITIONS COMPRISING MELATONIN, 5-FLUOROURACIL AND DIMETHYL SULFOXIDE FOR USE IN THE TREATMENT OF ACTINIC KERATOSIS” (RepoCeuticals A/S, priority 2023, published 2026), which cites them from elsewhere.

Assay in data set [1]: not given
The source holds these as a separate data set.

Some results are limits rather than exact numbers.

Turning to `O=c1[nH]cc(F)c(=O)[nH]1` [5-FU, 5-fluoro-2,4(1H;3H)-pyrimidinedione], the “solubility in water” value is reported as “only sparingly soluble”. The “solubility in DMSO” value in data set [1] (in DMSO) is “very soluble”.

As for `COc1ccc2[nH]cc(CCNC(C)=O)c2c1` [melatonin, N-acetyl-5-methoxytryptamine], the “solubility of melatonin in DMSO” value in data set [1] (in DMSO at room temperature) is at least 232 mg/mL.
